Measured values reported in patent US4206215A, “Antimicrobial bis-[4-(substituted-amino)-1-pyridinium]alkanes” (Sterling Drug Inc., priority 1977, dated 1980).
Like-named read-outs stand apart in the source and are kept apart here.

Key:
[1] = system: S. Aureus Smith; test: In vitro antibacterial activity, MIC (modified Autotiter method); assay type: cell-based, Staphylococcus aureus; conditions: 18-20 hours at 37° C.
In short: (§1)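 Final drug range: 500 → 0.06 mcg./ml., twofold decrements, in inoculated semisynthetic glucose medium. Dilution performed by Autotiter transfer loops in sterile water from a 1,000 mcg./ml. compound solution.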

[2] = system: E. coli 100/B22; test: as above; assay type: cell-based, Escherichia coli; conditions: 18-20 hours at 37° C.
In short: as §1

[3] = system: E. coli AB1932-1; test: as above; assay type: cell-based, Escherichia coli; conditions: 18-20 hours at 37° C.
In short: as §1

[4] = system: E. coli Vogel; test: as above; assay type: cell-based, Escherichia coli; conditions: 18-20 hours at 37° C.
In short: as §1

[5] = system: K. pneum. 39645; test: as above; assay type: cell-based, Klebsiella pneumoniae; conditions: 18-20 hours at 37° C.
In short: as §1

[6] = system: P. mirab. MGH-1; test: as above; assay type: cell-based, Proteus mirabilis; conditions: 18-20 hours at 37° C.
In short: as §1

[7] = system: Ps. aerug. MGH-2; test: as above; assay type: cell-based, Pseudomonas aeruginosa; conditions: 18-20 hours at 37° C.
In short: as §1

[8] = system: S. pyogen. C203; test: as above; assay type: cell-based, Streptococcus pyogenes; conditions: 18-20 hours at 37° C.
In short: as §1

[9] = system: A. niger 16404; test: In vitro antifungal activity, MIC (modified Autotiter method); assay type: cell-based, Aspergillus niger; conditions: 18-20 hours at 37° C.
In short: as §1

[10] = system: C. albicans 10231; test: as above; assay type: cell-based, Candida albicans; conditions: 18-20 hours at 37° C.
In short: as §1

[11] = system: C. albicans Wisc.; test: as above; assay type: cell-based, Candida albicans; conditions: 18-20 hours at 37° C.
In short: as §1

[12] = system: T. menta. 9129; test: as above; assay type: cell-based, Trichophyton mentagrophytes; conditions: 18-20 hours at 37° C.
In short: as §1

[13] = system: S. Aureus ATCC 6538; test: Effect of serum on bacteriostatic activity (serial tube dilution test); assay type: cell-based, Staphyloccocus aureus; conditions: for MIC: Staphylococcus aureus, ATCC6538
[14] = system: E. Coli ATCC 8739; test: as above; assay type: cell-based, Escherichia coli; conditions: for MIC: Escherichia coli, ATCC8739
In short: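 Bacteriostatic potency against Escherichia coli ATCC 8739 was measured with the standard serial tube dilution test. Minimum inhibitory concentrations were determined in pairs, with the test medium either lacking serum or containing 40% horse serum heat-inactivated at 56° C. for 30 min. Serum impact was reported as the fold increase in MIC (mcg./ml.).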

[15] = system: Streptococcus mutans OMZ-61; test: Dental plaque-preventive effectiveness in the presence of sterile human saliva (50%); assay type: cell-based; conditions: 50% sterile human saliva
Description: The dental plaque preventive activity of certain of the compounds of the present invention was determined by measuring the ability of these compounds to inhibit the production of dental plaque by Streptococcus mutans OMZ-61 as follows:
A culture medium for the plaque-producing Streptococcus mutans OMZ-61 containing 1.5 g. of BBL beef extract, 5 g. of sodium chloride, 10 g. of dehydrated trypticase, 5 g. of sucrose and sufficient distilled water to give a total volume of 1000 ml. is adjusted to pH 7.0 and sterilized by membrane filtration. The medium is dispensed aseptically in 10-ml. aliquots into 150×16 mm. test tubes and stored at refrigeration temperature until used.
Two concentrations of the compound to be tested are prepared by dissolving 100 mg. of the compound in 1 ml. of distilled water with the aid of sufficient 0.1 N sodium hydroxide, 10% dimethylsulfoxide or 10% N,N-dimethylformamide and diluting the resulting solution to 10 ml. with distilled water. This 1.0% solution and a 1:10 dilution in distilled water (0.1%) are sterilized by membrane filtration before use.
A sterile piece of plaque-free natural tooth enamel or synthetic hydroxylapatite is suspended in each concentration of compound for two 1-minute periods, each followed by a 1-minute air drying period. Each piece is then suspended and agitated for 5 minutes in individual test tubes containing sterile distilled water (rinse). They are then suspended in 10 ml. of liquid beef extract medium to which has been added 0.3 ml. of a 24-hr. anaerobic culture of Streptococcus mutans. The tubes containing the "treated" hydroxylapatite and the Streptococcus mutans are then incubated anaerobically at 37° C. for 24 hours. The same process of two 1-minute soaks in the solution of compound, each followed by 1 minute of air drying and the final 5-minute rinse is repeated before once again suspending the hydroxylapatite in a fresh tube containing 10 ml. of beef extract medium and 0.3 ml. of inoculum. At the end of the second 24-hour period, each piece of hydroxylapatite is rinsed for 1 minute in 3 successive tubes of distilled water. These are then suspended for 1 minute in a solution of F, D & C Red No. 3 dye. This staining procedure is used in order to identify more easily the development of plaque after the 48-hour period of exposure to the plaque-producing organism. The staining period is followed by another 10-second rinse to remove excess dye. Any plaque formation stains a brilliant pink. […] Active compounds are tested at successively lower doses in order to determine the minimum effective concentration. On some occasions, the interference of plaque production is caused by the inhibition of growth of the organism in the culture medium because the compound has been leached from the hydroxylapatite to produce an antibacterial level in the medium. When this occurs, the compound is tested at lower concentrations until the growth of the organism in the surrounding medium is equal to that in the nonmedicated control culture. Plaque may or may not be formed at these lower concentrations.
Dental plaque-preventive effectiveness in the presence of sterile human saliva (50%) was determined for representative examples.

[16] = system: Herpes simplex type 2 virus; test: Virucidal activity in vitro (plaque inhibition test); assay type: cell-based; conditions: 2 mg. of test compound on growth medium
Description: Virucidal activity of representative examples against Herpes simplex type 2 virus was determined in vitro employing a procedure similar to the plaque inhibition test for detection of specific inhibitors of DNA-containing viruses published by E. C. Herrmann, Jr., Proc. Soc. Exp. Biol. Med. 107, 142 (1961) wherein 2 mg. of the test compound was placed on the surface of the growth medium.

[17] = Acute oral toxicity (ALD50); assay type: in vivo; conditions: mouse, in vivo, po, mice, suspension in 1% gum tragacanth; read-out: 7-Day ALD50
Description: (§2) The acute oral toxicity (ALD50) of several representative examples was determined as follows: Groups of 3 young adult male Swiss-Webster strain albino mice were fasted approximately 4 hours before medication and then medicated once orally by stomach tube.

[18] = system: young adult male Swiss-Webster strain albino mice; test: Acute oral toxicity (ALD50); assay type: in vivo; conditions: suspension in 1% G.T.
Description: as §2

[19] = 25 mg/kg (so in the source) oral

Structure (SMILES): CCCCCCCCNc1cc[n+](CCCCCCCCCC[n+]2ccc(NCCCCCCCC)cc2)cc1 [Example 9D, 1,10-bis-[4-(octylamino)-1-pyridinium]decane dibromide]
- MIC S. Aureus Smith [1]: 0.5 µg/mL
- MIC E. coli 100/B22 [2]: 1.95 µg/mL
- MIC E. coli AB1932-1 [3]: 1.0 µg/mL
- MIC E. coli Vogel [4]: 1.95 µg/mL
- MIC K. pneum. 39645 [5]: 3.9 µg/mL
- MIC P. mirab. MGH-1 [6]: 3.9 µg/mL
- MIC Ps. aerug. MGH-2 [7]: 3.9 µg/mL
- MIC S. pyogen. C203 [8]: 0.5 µg/mL
- MIC A. niger 16404 [9]: 1.95 µg/mL
- MIC C. albicans 10231 [10]: 1.0 µg/mL
- MIC C. albicans Wisc. [11]: 1.0 µg/mL
- MIC T. menta. 9129 [12]: 1.0 µg/mL
- Fold Increase in MIC S. Aureus ATCC 6538 ([13]; 40% vs 0% horse serum): 16 fold
- MIC ([13]; 40% heat inactivated horse serum, read-out: MIC S. Aureus ATCC 6538 40% Serum): 7.8 µg/mL
- MIC ([13]; read-out: MIC S. Aureus ATCC 6538 0% Serum): 0.5 µg/mL
- Fold Increase in MIC E. Coli ATCC 8739 ([14]; 40% vs 0% horse serum): 64 fold
- MIC ([14]; 40% heat inactivated horse serum, read-out: MIC E. Coli ATCC 8739 40% Serum): 62.5 µg/mL
- MIC ([14]; read-out: MIC E. Coli ATCC 8739 0% Serum): 1 µg/mL
- Dental Plaque Preventive Activity in 50% saliva Minimum Effective Conc. (%) [15]: Ca. 0.005%
- Virucidal activity against Herpes simplex type 2 virus [16]: active
- LD50 at 168 h [17]: > 1000 mg/kg
- Mortality 7 Days [18, 19]: 0/3
- Mortality 24 Hrs [18, 19]: 0/3
- Mortality 7 Days ([18]; 250 mg/kg oral): 0/3
- Mortality 24 Hrs ([18]; 250 mg/kg oral): 0/3
- Mortality 7 Days ([18]; 500 mg/kg oral): 0/3
- Mortality 24 Hrs ([18]; 500 mg/kg oral): 0/3
- Mortality 7 Days ([18]; 1000 mg/kg oral): 0/3
- Mortality 24 Hrs ([18]; 1000 mg/kg oral): 0/3
